The results in this text go back to patent US20070117770A1, “Human ribosomal DNA (rDNA) and ribosomal RNA (rRNA) nucleic acids and uses thereof” (Cylene Pharmaceuticals, Inc., priority 2005, published 2007).

Holding throughout (assay): Protein kinase inhibition assay
Common to all, as to assay type: biochemical

One assay deals with Abl(h) (Homo sapiens, UniProt P00519). The note with it: for Mean (Counts - Blanks) / Activity (% Control) / Counts: 2.5 μM. The protocol:
(§1) Certain compounds were tested for activity in protein kinase inhibition assays. All substrates were dissolved and diluted to working stocks in de-ionized water, apart from histone H1 (10× working stock in 20 mM MOPS pH 7.0), PDKtide (10× working stock in 50 mM Tris pH 7.0) ATF2 (which is typically stored at a 20× working stock in 50 mM Tris pH 7.5, 150 mM NaCl, 0.1 mM EGTA, 0.03% Brij-35, 50% glycerol, 1 mM benzamidine, 0.2 mM PMSF and 0.1% R-mercaptoethanol), KKLNRTLSFAEPG (SEQ ID NO:203) and RRRLSFAEPG (SEQ ID NO:204) (50 mM HEPES pH 7.4) and GGEEEEYFELVKKKK (SEQ ID NO:205) (20 mM MOPS pH 7.0). All kinases were pre-diluted to a 10× working concentration prior to addition into the assay. The composition of the dilution buffer for each kinase is detailed below.
(§2) In a final reaction volume of 25 μl, Abl (h) (5-10 mU) is incubated with 8 mM MOPS pH 7.0, 0.2 mM EDTA, 50 μM EAIYAAPFAKKK (SEQ ID NO:206), 10 mM MgAcetate and [gamma-33P-ATP] (specific activity approx. 500 cpm/pmol, concentration as required). The reaction is initiated by the addition of the MgATP mix. After incubation for 40 minutes at room temperature, the reaction is stopped by the addition of 5 μl of a 3% phosphoric acid solution. 10 μl of the reaction is then spotted onto a P30 filtermat and washed three times for 5 minutes in 75 mM phosphoric acid and once in methanol prior to drying and scintillation counting.

Another assay has as its target CSK(h) (Homo sapiens, UniProt P41240). As to conditions: read-out: percent residual activity of CSK(h). Here is the method: as §1
In a final reaction volume of 25 μl, CSK (h) (5-10 mU) is incubated with 50 mM Tris pH 7.5, 0.1 mM EGTA, 0.1 mM Na3VO4, 0.1% R-mercaptoethanol, 0.1 mg/ml poly(Glu, Tyr) 4:1, 10 mM MnCl2, 10 mM MgAcetate and [gamma-33P-ATP] (specific activity approx. 500 cpm/pmol, concentration as required). The reaction is initiated by the addition of the MgATP mix. After incubation for 40 minutes at room temperature, the reaction is stopped by the addition of 5 μl of a 3% phosphoric acid solution. […]

A further assay concerns the target EGFR(L858R)(h) (Homo sapiens, UniProt P00533, L858R). The note with it: read-out: percent residual activity of EGFR(L858R)(h). Here is the method: as §1
as §2, with “EGFR (L858R)” for “Abl”, “0.1 mg/ml poly(Glu, Tyr) 4:1,” for “50 μM EAIYAAPFAKKK (SEQ ID NO:206),”, “Filtermat A” for “P30 filtermat”

The target of a further assay is EphB3(h) (Homo sapiens, UniProt P54753). The note with it: read-out: percent residual activity of EphB3(h). The protocol:
as §1
as §2, with “EphB3” for “Abl”, “10 mM MnCl2, 0.1 mg/ml poly (Glu, Tyr) 4:1,” for “50 μM EAIYAAPFAKKK (SEQ ID NO:206),”, “Filtermat A” for “P30 filtermat”

For the next assay, the target named is IRAK4(h) (Homo sapiens, UniProt Q9NWZ3). The note with it: read-out: percent residual activity of IRAK4(h). The protocol: as §1
Sequence of IRAK4(h) (Q9NWZ3 whole entry): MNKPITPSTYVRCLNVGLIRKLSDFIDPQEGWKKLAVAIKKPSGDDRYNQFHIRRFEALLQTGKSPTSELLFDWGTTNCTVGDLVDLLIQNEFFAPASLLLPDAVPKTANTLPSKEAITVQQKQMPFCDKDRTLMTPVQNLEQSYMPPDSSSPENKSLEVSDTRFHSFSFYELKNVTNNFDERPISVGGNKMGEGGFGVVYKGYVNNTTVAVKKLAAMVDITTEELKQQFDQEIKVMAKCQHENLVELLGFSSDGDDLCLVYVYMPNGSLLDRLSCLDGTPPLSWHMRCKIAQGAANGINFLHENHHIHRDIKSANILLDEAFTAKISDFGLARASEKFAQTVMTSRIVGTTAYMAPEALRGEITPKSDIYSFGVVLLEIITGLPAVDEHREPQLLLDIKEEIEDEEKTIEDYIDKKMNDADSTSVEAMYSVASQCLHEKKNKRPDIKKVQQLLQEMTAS
as §2, with “IRAK4” for “Abl”, “0.33 mg/ml myelin basic protein,” for “50 μM EAIYAAPFAKKK (SEQ ID NO:206),”

Another assay addresses MRCKβ(h) (Homo sapiens, UniProt Q9Y5S2). As to conditions: read-out: percent residual activity of MRCKβ(h). The protocol: as §1
as §2, with “μl, MRCKβ” for “μl, Abl”, “EDTA, 100” for “EDTA, 50”, “μM KKRNRTLTV” for “μM EAIYAAPFAKKK”, “ID NO:219),” for “ID NO:206),”

The mark [1] stands for this setting: 45 micromolar ATP, single replicates.
[2] abbreviates: 45 micromolar ATP, n = 2, read-out: Mean Activity (% Control).
The mark [3] stands for this setting: 45 micromolar ATP, single replicates, read-out: Activity (% Control).
[4] abbreviates: read-out: percent residual activity of Abl(h).

Values joined by “and” are separate entries in the source; they are usually repeats but may differ in a detail not shown here. Equal values may be shown once. Read-outs that look alike come from different tables or passages of the source.

Sequence of Abl(h) (P00519 whole entry): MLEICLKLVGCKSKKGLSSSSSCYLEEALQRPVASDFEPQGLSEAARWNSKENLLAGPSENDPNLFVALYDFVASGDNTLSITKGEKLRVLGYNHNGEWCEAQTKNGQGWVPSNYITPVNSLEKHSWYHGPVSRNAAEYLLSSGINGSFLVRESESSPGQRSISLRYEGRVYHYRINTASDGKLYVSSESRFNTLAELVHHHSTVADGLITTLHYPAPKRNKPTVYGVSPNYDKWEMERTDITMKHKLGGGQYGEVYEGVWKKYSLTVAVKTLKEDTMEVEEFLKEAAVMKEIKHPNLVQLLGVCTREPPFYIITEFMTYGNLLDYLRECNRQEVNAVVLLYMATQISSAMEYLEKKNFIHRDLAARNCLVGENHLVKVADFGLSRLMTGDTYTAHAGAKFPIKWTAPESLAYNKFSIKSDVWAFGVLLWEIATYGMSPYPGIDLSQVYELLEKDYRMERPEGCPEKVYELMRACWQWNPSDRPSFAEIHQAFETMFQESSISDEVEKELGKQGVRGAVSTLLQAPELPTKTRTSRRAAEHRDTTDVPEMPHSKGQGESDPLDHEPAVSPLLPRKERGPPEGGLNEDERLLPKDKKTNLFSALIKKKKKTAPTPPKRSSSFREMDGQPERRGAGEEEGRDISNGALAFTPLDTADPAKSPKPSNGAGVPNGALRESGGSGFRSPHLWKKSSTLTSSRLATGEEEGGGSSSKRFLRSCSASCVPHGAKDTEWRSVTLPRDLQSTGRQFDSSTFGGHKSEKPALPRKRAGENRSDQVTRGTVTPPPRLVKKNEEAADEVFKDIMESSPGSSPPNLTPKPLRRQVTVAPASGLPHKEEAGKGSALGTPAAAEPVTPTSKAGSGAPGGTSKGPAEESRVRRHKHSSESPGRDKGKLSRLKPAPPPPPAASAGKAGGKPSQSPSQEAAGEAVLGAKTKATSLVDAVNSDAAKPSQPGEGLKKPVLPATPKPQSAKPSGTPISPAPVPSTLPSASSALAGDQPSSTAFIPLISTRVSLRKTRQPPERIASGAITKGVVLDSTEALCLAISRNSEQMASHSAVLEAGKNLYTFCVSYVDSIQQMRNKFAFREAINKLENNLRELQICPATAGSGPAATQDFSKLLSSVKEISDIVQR
Sequence of CSK(h) (P41240 whole entry): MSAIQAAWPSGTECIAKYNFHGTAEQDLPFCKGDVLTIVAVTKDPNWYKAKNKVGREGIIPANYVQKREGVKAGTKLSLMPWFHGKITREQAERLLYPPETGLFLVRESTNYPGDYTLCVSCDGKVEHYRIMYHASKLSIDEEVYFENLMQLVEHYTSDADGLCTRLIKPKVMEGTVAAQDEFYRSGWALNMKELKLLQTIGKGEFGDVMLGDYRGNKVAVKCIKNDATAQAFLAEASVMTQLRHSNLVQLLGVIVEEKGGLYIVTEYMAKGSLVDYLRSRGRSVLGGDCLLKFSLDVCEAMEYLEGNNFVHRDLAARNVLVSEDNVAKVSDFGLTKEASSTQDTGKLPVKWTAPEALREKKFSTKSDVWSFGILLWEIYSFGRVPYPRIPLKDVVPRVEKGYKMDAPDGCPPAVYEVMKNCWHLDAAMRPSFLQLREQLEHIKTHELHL
Sequence of MRCKβ(h) (Q9Y5S2 whole entry): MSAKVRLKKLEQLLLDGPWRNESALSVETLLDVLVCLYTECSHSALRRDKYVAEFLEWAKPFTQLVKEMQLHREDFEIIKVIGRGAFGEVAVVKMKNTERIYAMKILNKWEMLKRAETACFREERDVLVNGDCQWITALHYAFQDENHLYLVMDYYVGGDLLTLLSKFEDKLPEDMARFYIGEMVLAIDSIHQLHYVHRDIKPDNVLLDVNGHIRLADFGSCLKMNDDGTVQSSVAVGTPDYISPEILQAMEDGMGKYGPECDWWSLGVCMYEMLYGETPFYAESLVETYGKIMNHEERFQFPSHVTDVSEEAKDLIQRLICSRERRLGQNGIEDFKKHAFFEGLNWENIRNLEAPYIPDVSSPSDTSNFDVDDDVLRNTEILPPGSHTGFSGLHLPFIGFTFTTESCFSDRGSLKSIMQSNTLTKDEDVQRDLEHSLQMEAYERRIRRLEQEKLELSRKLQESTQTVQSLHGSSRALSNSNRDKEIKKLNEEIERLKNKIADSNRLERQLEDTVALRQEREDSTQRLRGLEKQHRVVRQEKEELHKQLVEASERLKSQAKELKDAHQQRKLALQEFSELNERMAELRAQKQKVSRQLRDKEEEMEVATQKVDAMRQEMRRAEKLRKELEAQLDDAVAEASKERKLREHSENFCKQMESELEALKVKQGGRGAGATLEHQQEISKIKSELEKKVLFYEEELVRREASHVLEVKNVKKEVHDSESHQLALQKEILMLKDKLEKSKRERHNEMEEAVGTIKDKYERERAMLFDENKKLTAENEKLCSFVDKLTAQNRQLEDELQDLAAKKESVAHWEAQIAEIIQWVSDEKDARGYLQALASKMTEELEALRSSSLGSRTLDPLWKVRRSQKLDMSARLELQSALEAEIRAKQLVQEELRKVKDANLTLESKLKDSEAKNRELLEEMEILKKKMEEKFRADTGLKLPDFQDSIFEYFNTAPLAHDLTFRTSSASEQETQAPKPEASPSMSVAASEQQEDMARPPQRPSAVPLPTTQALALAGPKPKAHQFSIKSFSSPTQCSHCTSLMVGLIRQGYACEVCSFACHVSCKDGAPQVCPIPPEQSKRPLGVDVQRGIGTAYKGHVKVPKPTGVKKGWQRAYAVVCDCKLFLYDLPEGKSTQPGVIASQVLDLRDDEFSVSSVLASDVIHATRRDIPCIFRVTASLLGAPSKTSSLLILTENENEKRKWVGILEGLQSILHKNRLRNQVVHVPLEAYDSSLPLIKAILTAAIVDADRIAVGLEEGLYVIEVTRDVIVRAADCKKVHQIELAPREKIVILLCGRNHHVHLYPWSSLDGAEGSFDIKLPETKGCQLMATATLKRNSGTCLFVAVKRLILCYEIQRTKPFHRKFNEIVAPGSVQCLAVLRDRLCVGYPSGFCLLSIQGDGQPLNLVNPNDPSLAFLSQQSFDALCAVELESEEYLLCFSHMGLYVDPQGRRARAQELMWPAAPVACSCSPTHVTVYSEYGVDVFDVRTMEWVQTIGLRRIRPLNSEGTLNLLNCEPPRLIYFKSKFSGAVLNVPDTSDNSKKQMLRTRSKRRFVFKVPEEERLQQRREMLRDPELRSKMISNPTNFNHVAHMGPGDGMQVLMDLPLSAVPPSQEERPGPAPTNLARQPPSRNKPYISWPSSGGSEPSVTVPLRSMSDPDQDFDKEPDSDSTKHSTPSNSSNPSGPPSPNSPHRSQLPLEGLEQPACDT
Sequence of EphB3(h) (P54753 34-998): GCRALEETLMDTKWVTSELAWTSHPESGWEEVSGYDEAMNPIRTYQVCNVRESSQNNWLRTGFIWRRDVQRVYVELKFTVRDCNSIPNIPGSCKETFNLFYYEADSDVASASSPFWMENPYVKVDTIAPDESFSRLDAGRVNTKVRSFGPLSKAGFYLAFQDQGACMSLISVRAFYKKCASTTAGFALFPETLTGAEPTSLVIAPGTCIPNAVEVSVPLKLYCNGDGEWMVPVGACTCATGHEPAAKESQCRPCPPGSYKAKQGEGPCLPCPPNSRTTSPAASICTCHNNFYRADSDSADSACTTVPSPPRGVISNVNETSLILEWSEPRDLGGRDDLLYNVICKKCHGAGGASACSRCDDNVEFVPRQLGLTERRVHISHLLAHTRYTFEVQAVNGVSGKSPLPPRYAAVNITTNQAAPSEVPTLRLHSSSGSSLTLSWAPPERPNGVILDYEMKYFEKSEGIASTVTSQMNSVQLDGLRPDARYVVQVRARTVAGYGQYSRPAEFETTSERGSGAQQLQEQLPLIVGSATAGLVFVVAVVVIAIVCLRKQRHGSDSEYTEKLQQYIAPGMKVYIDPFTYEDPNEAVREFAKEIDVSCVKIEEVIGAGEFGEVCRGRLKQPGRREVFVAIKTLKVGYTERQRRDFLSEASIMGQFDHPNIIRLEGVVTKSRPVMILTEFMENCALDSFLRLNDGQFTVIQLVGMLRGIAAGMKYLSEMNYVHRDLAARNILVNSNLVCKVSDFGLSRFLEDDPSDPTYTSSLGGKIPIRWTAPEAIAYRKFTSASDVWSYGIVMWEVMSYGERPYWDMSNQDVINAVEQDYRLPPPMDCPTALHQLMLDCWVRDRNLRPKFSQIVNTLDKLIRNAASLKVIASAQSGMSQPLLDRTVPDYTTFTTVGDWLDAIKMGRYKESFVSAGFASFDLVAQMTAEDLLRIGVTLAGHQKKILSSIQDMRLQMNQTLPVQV

Turning to `CN1CCCC1CCNC(=O)c1cn2c3c(c(N4CCC(c5cnccn5)C4)c(F)cc3c1=O)Oc1cc3ccccc3cc1-2` (stereo not shown) [Compound A-1], the “Mean (Counts - Blanks)” value at Abl(h) (45 micromolar ATP) is on record as 12522. Moreover, the “Activity (% Control)” value at Abl(h) (setting [1]) is 25 % Control. Moreover, the Counts on Abl(h) (setting [1]) was 15236 and 14630. Besides, the remaining activity at 2.5 µM worked out at 26% on Abl(h) (setting [2]); 27% on Abl(h) (setting [3]); 26% at Abl(h) (setting [4]); 116% on CSK(h); 113% on EGFR(L858R)(h); 111% on EphB3(h). For the same compound, the remaining activity at 2.5 µM at IRAK4(h) worked out at 98%; at MRCKβ(h), 84%.
Turning to `CC(=O)N1CCN(c2ccc3c(=O)c(C(=O)NCCN4CCCC4)c4n(C)c5ccccc5n4c3n2)CC1` [Compound B-1], the “Mean (Counts - Blanks)” value on Abl(h) (45 micromolar ATP) is listed as 47944. Further, the “Activity (% Control)” value on Abl(h) (setting [1]) worked out at 98 % Control. Besides, the Counts on Abl(h) (setting [1]) was 51051 and 49659. The remaining activity at 2.5 µM at Abl(h) (setting [2]) stood at 100%; on Abl(h) (setting [3]), 101%; at Abl(h) (setting [4]), 100%; on CSK(h), 92%; on EGFR(L858R)(h), 109%; on EphB3(h), 115%. The values for the remaining activity at 2.5 µM at IRAK4(h) and at MRCKβ(h) were 107% and 102%, respectively.
